# In PubChem BioAssay AID2060505 (Molecular Pharmacology Branch, DTP, NCI, 2025):
# Tested on: 633275-114-R-J1-PDC complex spheroids, viability
# Experiment: Anticancer human tumor 633275-114-R-J1-PDC patient-derived endometrial adenocarcinoma cell line growth inhibition [GQUAD]
# Details: for IC50: curve of first compound; for viability, T/C: stronger effect = lower value
# In short: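 Viability of tumor cells grown as complex spheroids with endothelial and stromal cells, exposed to drug combinations. Top concentration at or near clinical Cmax (else 10 microM), diluted in half-log increments.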
# 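Further: spheroids exposed to the agents for seven days.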
# 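Wherever viability, T/C is given: percent of DMSO vehicle control viability which is 100%.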
smiles,measurement,setting,value
C=CC(=O)N1CCN(c2nc(=O)n(-c3c(C)ccnc3C(C)C)c3nc(-c4c(O)cccc4F)c(F)cc23)C(C)C1 (configuration not stated) + Cc1[nH]c2ccc(F)cc2c1-c1nc2c3cccnc3c3ncccc3c2[nH]1,IC50,second compound 0.0316 µM,> 10 µM
same,IC50,second compound 0.1 µM,> 10 µM
same,IC50,second compound 0.316 µM,> 10 µM
same,IC50,second compound 1 µM,> 10 µM
same,IC50,second compound 3.16 µM,> 10 µM
same,IC50,second compound 10 µM,> 10 µM
same,"viability, T/C","second compound 0.0316 µM, first compound 0.0316 µM",95.3%
same,"viability, T/C","second compound 0.0316 µM, first compound 0.1 µM",100%
same,"viability, T/C","second compound 0.0316 µM, first compound 0.316 µM",93.9%
same,"viability, T/C","second compound 0.0316 µM, first compound 1 µM",104%
same,"viability, T/C","second compound 0.0316 µM, first compound 3.16 µM",104%
same,"viability, T/C","second compound 0.0316 µM, first compound 10 µM",77.9%
same,"viability, T/C","second compound 0.1 µM, first compound 0.0316 µM",106%
same,"viability, T/C","second compound 0.1 µM, first compound 0.1 µM",105%
same,"viability, T/C","second compound 0.1 µM, first compound 0.316 µM",102%
same,"viability, T/C","second compound 0.1 µM, first compound 1 µM",100%
same,"viability, T/C","second compound 0.1 µM, first compound 3.16 µM",105%
same,"viability, T/C","second compound 0.1 µM, first compound 10 µM",88.9%
same,"viability, T/C","second compound 0.316 µM, first compound 0.0316 µM",97.3%
same,"viability, T/C","second compound 0.316 µM, first compound 0.1 µM",98.1%
same,"viability, T/C","second compound 0.316 µM, first compound 0.316 µM",103%
same,"viability, T/C","second compound 0.316 µM, first compound 1 µM",97.6%
same,"viability, T/C","second compound 0.316 µM, first compound 3.16 µM",105%
same,"viability, T/C","second compound 0.316 µM, first compound 10 µM",83.3%
same,"viability, T/C","second compound 1 µM, first compound 0.0316 µM",91.5%
same,"viability, T/C","second compound 1 µM, first compound 0.1 µM",92.4%
same,"viability, T/C","second compound 1 µM, first compound 0.316 µM",94.7%
same,"viability, T/C","second compound 1 µM, first compound 1 µM",98.1%
same,"viability, T/C","second compound 1 µM, first compound 3.16 µM",90.1%
same,"viability, T/C","second compound 1 µM, first compound 10 µM",77.9%
same,"viability, T/C","second compound 3.16 µM, first compound 0.0316 µM",72.5%
same,"viability, T/C","second compound 3.16 µM, first compound 0.1 µM",74.9%
same,"viability, T/C","second compound 3.16 µM, first compound 0.316 µM",75.8%
same,"viability, T/C","second compound 3.16 µM, first compound 1 µM",76.3%
same,"viability, T/C","second compound 3.16 µM, first compound 3.16 µM",74.2%
same,"viability, T/C","second compound 3.16 µM, first compound 10 µM",62.6%
same,"viability, T/C","second compound 10 µM, first compound 0.0316 µM",67%
same,"viability, T/C","second compound 10 µM, first compound 0.1 µM",71.8%
same,"viability, T/C","second compound 10 µM, first compound 0.316 µM",68.2%
same,"viability, T/C","second compound 10 µM, first compound 1 µM",78.7%
same,"viability, T/C","second compound 10 µM, first compound 3.16 µM",71.6%
same,"viability, T/C","second compound 10 µM, first compound 10 µM",59%
